Measured values reported in patent US20080255192A1, “Methods and Compositions for Selectin Inhibition” (Wyeth, priority 2007, published 2008).

What follows are compounds tested against T1, P-selectin/PSGL-1 interaction (Homo sapiens, UniProt P16109) (assay: Biacore P-Selectin/PSGL-1 Inhibition Assay (surface plasmon resonance)). Conditions: 250 uM test compound, 500 nM P.LE, immobilized PSGL-1 19ek, 10% DMSO, pH 7.4.
T1 construct: comprised of the lectin and epidermal growth factor-like (EGF) domains expressed in CHO cells; made in house; host or cells: CHO cells (P-LE)
T1 sequence (P16109 42-198): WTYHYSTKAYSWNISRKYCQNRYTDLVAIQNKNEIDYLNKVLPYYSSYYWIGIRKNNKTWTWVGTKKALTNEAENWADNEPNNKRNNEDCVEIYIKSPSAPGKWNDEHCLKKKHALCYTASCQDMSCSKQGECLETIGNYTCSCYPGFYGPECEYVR
Assay type: binding
Description: Surface plasmon resonance assays were performed on a Biacore 3000 instrument (Biacore Inc. Piscataway, N.J.) at 25° C. at a flow rate of 30 μL/minute and each assay consisted of a 60-second equilibration, a 60-μL sample injection (kinject), and a 300-second dissociation.
A purified, monomeric, truncated form of human PSGL-1, “19ek”, that contained all the necessary P-selectin binding determinants (see Goetz, et al., J. Cell Biol., 1997, 137: 509-519; and Sako, et al., Cell, 1995, 83: 323-331) was biotinylated via amine chemistry (Sulfo-NHS-LC-Biotin, Peirce) at a unique C-terminal lysine residue (see Somers, et al., Cell, 2000, 103: 467-479) and immobilized on a Biacore SA sensor chip (Biacore Inc.), using an HBS-EP buffer (Biacore Inc.), and the target 600-700 RU. The coated chip was re-equilibrated with an HBS-P buffer (Biacore Inc.) to which 1 mM CaCl2 and 1 mM MgCl2 (both from Fisher) were added to ensure sufficient calcium for the calcium-dependent interaction between the receptor and the ligand.
Test compounds were incubated for 1 hour in a 1.1× Biacore assay buffer. Each solution was centrifuged through a 0.2 µm filter, using a 96-well plate format (Millipore). Glycyrrhizin tri-sodium salt (TCI) was prepared as a positive control in parallel with the test compounds, in the same manner described above.
A soluble recombinant truncated form of human P-selectin, P-LE, comprised of the lectin and epidermal growth factor-like (EGF) domains expressed in CHO cells (see Somers, et al., Cell, 2000, 103: 467-479) was added to each filtered test compound solution. Final concentrations of reagents were 500 nM P.LE, 250 or 500 μM test compound (depending on structure) or 1 mM glycyrrhizin, 10% DMSO, and 1× Biacore buffer ([…], 150 mM NaCl, 1 mM CaCl2, and 1 mM MgCl2 (all reagents from Fisher)), with a pH of 7.4. Compounds active at 250 μM were titrated to further define activity. Test samples were supplied to the Biacore instrument in a 96-well plate.
The Biacore raw data file was exported as a text file to an Excel spreadsheet, where the buffer blanks bracketing the samples were averaged for each Biacore instrument flow cell (Fc), and subtracted from the averaged uninhibited P.LE samples and from all the other samples. The reference signal from Fcl (uncoated) was then subtracted from its corresponding active (coated) signal for each injection, a process known as double referencing (see Myszka, J. Mol. Recognit., 1999, 12(5): 279-284). The percent inhibition of binding was calculated by dividing the reference-subtracted inhibited signal by the reference-subtracted uninhibited signal, subtracting this value from 1, and multiplying the resulting value by 100. The replicate percent inhibition values were averaged and expressed as the mean ±standard deviation. The inter-experiment standard deviation of calculated percent inhibitions in the Biacore assay was ±5.

Row | SMILES | inhibition at 250 µM [%]
1 | CCC(C)c1cccc2c(C(=O)O)c(O)c(C3(c4ccccc4)CC3)nc12 (stereo not shown) [Compound 15, 8-sec-butyl-3-hydroxy-2-(1-phenylcyclopropyl)quinoline-4-carboxylic acid] | 63
2 | O=C(O)c1c(O)c(C2(c3ccccc3)CC2)nc2c(C(F)(F)F)cc(Br)cc12 [Compound 107, 6-bromo-3-hydroxy-2-(1-phenylcyclopropyl)-8-(trifluoromethyl)quinoline-4-carboxylic acid] | 41
3 | O=C(O)c1c(O)c(C2(c3ccc(Cl)cc3)CC2)nc2c(C(=O)O)cccc12 [Compound 108, 2-(1-(4-chlorophenyl)cyclopropyl)-3-hydroxyquinoline-4,8-dicarboxylic acid] | 12
4 | O=C(O)c1c(O)c(C2(c3ccccc3)CC2)nc2ccc(OC(F)(F)F)cc12 [Compound 29, 3-hydroxy-2-(1-phenylcyclopropyl)-6-(trifluoromethoxy)quinoline-4-carboxylic acid] | 10
5 | Cc1ccc2c(C(=O)O)c(O)c(C(C)Cc3ccccc3)nc2c1C (stereo not shown) [Compound 134, 3-Hydroxy-7,8-dimethyl-2-(1-phenylpropan-2-yl)quinoline-4-carboxylic acid] | 49
6 | O=C(O)c1c(O)c(C2(c3ccc(F)cc3)CC2)nc2c(-c3ccccc3)cccc12 [Compound 77] | 37
7 | O=C(O)c1c(O)c(C2(c3ccc(F)cc3)CC2)nc2c(C(F)(F)F)cccc12 [Compound 61, 2-(1-(4-fluorophenyl)cyclopropyl)-3-hydroxy-8-(trifluoromethyl)quinoline-4-carboxylic acid] | 56
8 | O=C(O)c1c(O)c(C2(c3ccc(Cl)cc3)CC2)nc2ccccc12 [Compound 8, 2-(1-(4-chlorophenyl)cyclopropyl)-3-hydroxyquinoline-4-carboxylic acid] | ≤ 10
9 | CCc1ccc2c(C(=O)O)c(O)c(C3(c4ccc(F)cc4)CC3)nc2c1 [Compound 66, 7-ethyl-2-(1-(4-fluorophenyl)cyclopropyl)-3-hydroxyquinoline-4-carboxylic acid] | ≤ 10
10 | Cc1ccc2c(C(=O)O)c(O)c(C3(c4ccc(F)cc4)CC3)nc2c1C [Compound 81, 2-(1-(4-fluorophenyl)cyclopropyl)-3-hydroxy-7,8-dimethylquinoline-4-carboxylic acid] | 23
11 | O=C(O)c1c(O)c(C2(c3cccs3)CC2)nc2c(C(F)(F)F)cccc12 [Compound 60, 3-hydroxy-2-(1-(thiophen-2-yl)cyclopropyl)-8-(trifluoromethyl)quinoline-4-carboxylic acid] | 15
12 | CCC(c1ccccc1)c1nc2c(C(C)C)cccc2c(C(=O)O)c1O (stereo not shown) [Compound 127, 3-Hydroxy-8-isopropyl-2-(1-phenylpropyl)quinoline-4-carboxylic acid] | 65
13 | O=C(O)c1c(O)c(C2(c3ccc(C(F)(F)F)cc3)CC2)nc2c3c(ccc12)CCCC3 [Compound 93, 3-hydroxy-2-(1-(4-(trifluoromethyl)phenyl)cyclopropyl)-7,8,9,10-tetrahydrobenzo[h]quinoline-4-carboxylic acid] | 33
14 | O=C(O)c1c(O)c(C2(c3ccc(Cl)cc3)CC2)nc2ccc(OC(F)(F)F)cc12 [Compound 21, 2-(1-(4-chlorophenyl)cyclopropyl)-3-hydroxy-6-(trifluoromethoxy)quinoline-4-carboxylic acid] | 28
15 | Cc1cccc2c(C(=O)O)c(O)c(C3(c4ccccc4)CC3)nc12 [Compound 31, 3-hydroxy-8-methyl-2-(1-phenylcyclopropyl)quinoline-4-carboxylic acid] | ≤ 10
16 | O=C(O)c1c(O)c(C2(c3ccc(Cl)cc3)CC2)nc2c(C(F)(F)F)cc(-c3ccccc3)cc12 [Compound 96, 2-(1-(4-chlorophenyl)cyclopropyl)-3-hydroxy-6-phenyl-8-(trifluoromethyl)quinoline-4-carboxylic acid] | ≤ 10

Row | SMILES | inhibition at 250 µM [%]
17 | CC(C)C(c1ccccc1)c1nc2c(C(F)(F)F)cccc2c(C(=O)O)c1O (stereo not shown) [Compound 129, 3-Hydroxy-2-(2-methyl-1-phenylpropyl)-8-(trifluoromethyl)quinoline-4-carboxylic acid] | 60
18 | COc1ccc(C2(c3nc4c5c(ccc4c(C(=O)O)c3O)CCCC5)CC2)cc1 [Compound 51, 3-hydroxy-2-(1-(4-methoxyphenyl)cyclopropyl)-7,8,9,10-tetrahydrobenzo[h]quinoline-4-carboxylic acid] | 38
19 | Cc1ccc(C2(c3nc4c(C)c(C)ccc4c(C(=O)O)c3O)CC2)cc1 [Compound 113, 3-hydroxy-7,8-dimethyl-2-(1-p-tolyl-cyclopropyl)-quinoline-4-carboxylic acid] | 24
20 | CCc1ccc2c(C(=O)O)c(O)c(C3(c4ccc(C(F)(F)F)cc4)CC3)nc2c1 [Compound 89, 7-ethyl-3-hydroxy-2-(1-(4-(trifluoromethyl)phenyl)cyclopropyl)quinoline-4-carboxylic acid] | 10
21 | CC(Cc1nc2c(C(F)(F)F)cccc2c(C(=O)O)c1O)c1ccccc1 (stereo not shown) [Compound 135, 3-Hydroxy-2-(2-phenylpropyl)-8-(trifluoromethyl)quinoline-4-carboxylic acid] | 46
22 | CC(C)c1cccc2c(C(=O)O)c(O)c(CC(C)c3ccccc3)nc12 (stereo not shown) [Compound 136, 3-Hydroxy-8-isopropyl-2-(2-phenylpropyl)quinoline-4-carboxylic acid] | 64
23 | O=C(O)c1c(O)c(C2(c3ccc(F)cc3)CC2)nc2c(Br)cccc12 [Compound 75, 8-bromo-2-(1-(4-fluorophenyl)cyclopropyl)-3-hydroxyquinoline-4-carboxylic acid] | ≤ 10
24 | CC(C)(C)c1cccc2c(C(=O)O)c(O)c(C3(c4ccc(Cl)cc4)CC3)nc12 [Compound 4, 8-tert-butyl-2-(1-(4-chlorophenyl)cyclopropyl)-3-hydroxyquinoline-4-carboxylic acid] | ≤ 10
25 | CC(C)(c1ccc(Cl)cc1)c1nc2c(C(O)(C(F)(F)F)C(F)(F)F)cccc2c(C(=O)O)c1O [Compound 122, 2-(2-(4-chlorophenyl)propan-2-yl)-8-(1,1,1,3,3,3-hexafluoro-2-hydroxypropan-2-yl)-3-hydroxyquinoline-4-carboxylic acid] | ≤ 10
26 | Cc1ccc(C2(c3nc4c(C)cccc4c(C(=O)O)c3O)CC2)cc1 [Compound 83, 8-methyl-2-(1-p-tolylcyclopropyl)-3-hydroxyquinoline-4-carboxylic acid] | 12
27 | O=C(O)c1c(O)c(C2(c3ccc(Cl)cc3)CC2)nc2c(Cl)cccc12 [Compound 5, 8-chloro-2-(1-(4-chlorophenyl)cyclopropyl)-3-hydroxyquinoline-4-carboxylic acid] | 93
28 | O=C(O)c1c(O)c(C2(Cc3ccccc3)CC2)nc2c(C(F)(F)F)cccc12 [Compound 112, 2-(1-benzyl-cyclopropyl)-3-hydroxy-8-trifluoromethyl-quinoline-4-carboxylic acid] | 43
29 | Cc1ccc(C2(c3nc4c(C(O)(C(F)(F)F)C(F)(F)F)cccc4c(C(=O)O)c3O)CC2)cc1 [Compound 85, 8-(1,1,1,3,3,3-hexafluoro-2-hydroxypropan-2-yl)-3-hydroxy-2-(1-p-tolylcyclopropyl)quinoline-4-carboxylic acid] | 59
30 | O=C(O)c1c(O)c(C2(c3ccc(Cl)cc3)CC2)nc2ccc(C(F)(F)F)cc12 [Compound 24, 2-(1-(4-chlorophenyl)cyclopropyl)-3-hydroxy-6-(trifluoromethyl)quinoline-4-carboxylic acid] | 34
31 | O=C(O)c1c(O)c(C2(c3ccc(Cl)cc3)CC2)nc2c(-c3ccsc3)cccc12 [Compound 37, 2-(1-(4-chlorophenyl)cyclopropyl)-3-hydroxy-8-(thiophen-3-yl)quinoline-4-carboxylic acid] | 78
